The experiment concerns blue green algae. Description: Pond treatment, algae control in a four-foot deep pond (Example 1). It is filed as in vivo. The conditions noted are these: treated every two weeks for approximately 6 years during the warmer season. An excerpt: The solid form of this invention containing approximately 70% calcium peroxide was applied to the pond by spreading it over the surface at a rate of 10 lbs per acre foot.

Turning to `O=S(=O)([O-])[O-].[Cu+2]` [copper sulfate], the control of algae result is “control of algae was still difficult”.

Source of the values: patent US20090069181A1, “Product and Process for Treating Water Bodies, Sediments and Soils” (SOLVAY SA, priority 2006, published 2009).
